# Assay results published in PubChem BioAssay (NCI).
#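 96-well plates; 48 h exposure; 5 concentrations. Endpoints by linear interpolation between flanking doses. Not reached: highest tested concentration assigned. At the TGI there is no net growth.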
# Key:
# Experiment in all cases: inhibition of tumour cell growth, NCI panel, 48 h
# 786-0 renal = tested on: 786-0 renal
# SK-MEL-28 melanoma = tested on: SK-MEL-28 melanoma
# OVCAR-4 ovarian = tested on: OVCAR-4 ovarian
# NCI-H460 lung = tested on: NCI-H460 lung
# SK-MEL-2 melanoma = tested on: SK-MEL-2 melanoma
# CAKI-1 renal = tested on: CAKI-1 renal
# A498 renal = tested on: A498 renal
# HCC-2998 colon = tested on: HCC-2998 colon
# SNB-78 CNS = tested on: SNB-78 CNS
# NCI-H226 lung = tested on: NCI-H226 lung
# NCI-H522 lung = tested on: NCI-H522 lung
# K-562 leukemia = tested on: K-562 leukemia
# SNB-19 CNS = tested on: SNB-19 CNS
# HOP-62 NSCLC = tested on: HOP-62 NSCLC
# UO-31 renal = tested on: UO-31 renal
# LXFL 529 NSCLC = tested on: LXFL 529 NSCLC
# SK-MEL-5 melanoma = tested on: SK-MEL-5 melanoma
# RPMI-8226 leukemia = tested on: RPMI-8226 leukemia
# HOP-18 NSCLC = tested on: HOP-18 NSCLC
# SF-539 CNS = tested on: SF-539 CNS
# OVCAR-3 ovarian = tested on: OVCAR-3 ovarian
# RXF 393 renal = tested on: RXF 393 renal
# M19-MEL melanoma = tested on: M19-MEL melanoma
# DLD-1 colon = tested on: DLD-1 colon
# SW-620 colon = tested on: SW-620 colon
# IGROV1 ovarian = tested on: IGROV1 ovarian
# HL-60(TB) leukemia = tested on: HL-60(TB) leukemia
# SN12C renal = tested on: SN12C renal
# KM20L2 colon = tested on: KM20L2 colon
# LOX IMVI melanoma = tested on: LOX IMVI melanoma
# SNB-75 CNS = tested on: SNB-75 CNS
# UACC-257 melanoma = tested on: UACC-257 melanoma
# U251 CNS = tested on: U251 CNS
# RXF-631 renal = tested on: RXF-631 renal
# HCT-15 colon = tested on: HCT-15 colon
# SF-295 CNS = tested on: SF-295 CNS
# SK-OV-3 ovarian = tested on: SK-OV-3 ovarian
# COLO 205 colon = tested on: COLO 205 colon
# HOP-92 NSCLC = tested on: HOP-92 NSCLC
# UACC-62 melanoma = tested on: UACC-62 melanoma
# NCI-H23 lung = tested on: NCI-H23 lung
# DMS 114 small cell lung = tested on: DMS 114 small cell lung
# CCRF-CEM leukemia = tested on: CCRF-CEM leukemia
# MOLT-4 leukemia = tested on: MOLT-4 leukemia
# ACHN renal = tested on: ACHN renal
# HCT-116 colon = tested on: HCT-116 colon
# SR leukemia = tested on: SR leukemia
# EKVX NSCLC = tested on: EKVX NSCLC
# SF-268 CNS = tested on: SF-268 CNS
# MALME-3M melanoma = tested on: MALME-3M melanoma
# HT29 colon = tested on: HT29 colon
# KM12 colon = tested on: KM12 colon
# DMS 273 small cell lung = tested on: DMS 273 small cell lung
# TK-10 renal = tested on: TK-10 renal
# OVCAR-5 ovarian = tested on: OVCAR-5 ovarian
# M14 melanoma = tested on: M14 melanoma
# A549 NSCLC = tested on: A549 NSCLC
# OVCAR-8 ovarian = tested on: OVCAR-8 ovarian
smiles,measurement,setting,value
COC(=O)C1Cc2c([nH]c3ccccc23)C(c2ccccc2O)N1Cc1ccccc1 (stereo not given),TGI,786-0 renal,31.2 µM
same,TGI,SK-MEL-28 melanoma,> 31.6 µM
same,TGI,OVCAR-4 ovarian,33.6 µM
same,TGI,NCI-H460 lung,> 46.4 µM
same,TGI,SK-MEL-2 melanoma,> 31.6 µM
same,TGI,CAKI-1 renal,34.5 µM
same,TGI,A498 renal,37.8 µM
same,TGI,HCC-2998 colon,> 31.6 µM
same,TGI,SNB-78 CNS,> 46.4 µM
same,TGI,NCI-H226 lung,> 46.4 µM
same,TGI,NCI-H522 lung,> 31.6 µM
same,TGI,K-562 leukemia,> 46.4 µM
same,TGI,SNB-19 CNS,> 31.6 µM
same,TGI,HOP-62 NSCLC,> 63.5 µM
same,TGI,UO-31 renal,> 46.4 µM
same,TGI,LXFL 529 NSCLC,43.9 µM
same,TGI,SK-MEL-5 melanoma,> 46.4 µM
same,TGI,RPMI-8226 leukemia,> 100 µM
same,TGI,HOP-18 NSCLC,> 46.4 µM
same,TGI,SF-539 CNS,65.2 µM
same,TGI,OVCAR-3 ovarian,39.2 µM
same,TGI,RXF 393 renal,61.7 µM
same,TGI,M19-MEL melanoma,> 46.4 µM
same,TGI,DLD-1 colon,> 100 µM
same,TGI,SW-620 colon,> 46.4 µM
same,TGI,IGROV1 ovarian,33.3 µM
same,TGI,HL-60(TB) leukemia,> 46.4 µM
same,TGI,SN12C renal,> 46.4 µM
same,TGI,KM20L2 colon,> 46.4 µM
same,TGI,LOX IMVI melanoma,> 46.4 µM
same,TGI,SNB-75 CNS,18.8 µM
same,TGI,UACC-257 melanoma,> 46.4 µM
same,TGI,U251 CNS,39.5 µM
same,TGI,RXF-631 renal,45.3 µM
same,TGI,HCT-15 colon,> 46.4 µM
same,TGI,SF-295 CNS,42.6 µM
same,TGI,SK-OV-3 ovarian,40.1 µM
same,TGI,COLO 205 colon,> 46.4 µM
same,TGI,HOP-92 NSCLC,43.5 µM
same,TGI,UACC-62 melanoma,33.1 µM
same,TGI,NCI-H23 lung,> 46.4 µM
same,TGI,DMS 114 small cell lung,> 31.6 µM
same,TGI,CCRF-CEM leukemia,> 46.4 µM
same,TGI,MOLT-4 leukemia,> 46.4 µM
same,TGI,ACHN renal,39.9 µM
same,TGI,HCT-116 colon,> 31.6 µM
same,TGI,SR leukemia,> 31.6 µM
same,TGI,EKVX NSCLC,> 31.6 µM
same,TGI,SF-268 CNS,> 31.6 µM
same,TGI,MALME-3M melanoma,> 31.6 µM
same,TGI,HT29 colon,> 46.4 µM
same,TGI,KM12 colon,> 31.6 µM
same,TGI,DMS 273 small cell lung,> 31.6 µM
same,TGI,TK-10 renal,> 46.4 µM
same,TGI,OVCAR-5 ovarian,> 46.4 µM
same,TGI,M14 melanoma,> 46.4 µM
same,TGI,A549 NSCLC,> 46.4 µM
same,TGI,OVCAR-8 ovarian,> 46.4 µM
CC1=C(/C=C/C(C)=C/C=C/C(C)=C/C=C/C=C(C)/C=C/C=C(C)/C=C/C2=C(C)C(=O)C(O)CC2(C)C)C(C)(C)CC(O)C1=O (stereo not given),TGI,786-0 renal,> 100 µM
same,TGI,SK-MEL-28 melanoma,> 100 µM
same,TGI,OVCAR-4 ovarian,> 100 µM
same,TGI,NCI-H460 lung,> 100 µM
same,TGI,SK-MEL-2 melanoma,> 100 µM
same,TGI,CAKI-1 renal,> 100 µM
same,TGI,A498 renal,> 100 µM
same,TGI,HCC-2998 colon,> 100 µM
same,TGI,SNB-78 CNS,> 100 µM
same,TGI,NCI-H226 lung,> 100 µM
same,TGI,NCI-H522 lung,> 100 µM
same,TGI,K-562 leukemia,> 100 µM
same,TGI,SNB-19 CNS,> 100 µM
same,TGI,HOP-62 NSCLC,> 100 µM
same,TGI,UO-31 renal,> 100 µM
same,TGI,SK-MEL-5 melanoma,> 100 µM
same,TGI,RPMI-8226 leukemia,> 100 µM
same,TGI,HOP-18 NSCLC,> 100 µM
same,TGI,SF-539 CNS,> 100 µM
same,TGI,OVCAR-3 ovarian,> 100 µM
same,TGI,RXF 393 renal,> 100 µM
same,TGI,M19-MEL melanoma,> 100 µM
same,TGI,DLD-1 colon,> 100 µM
same,TGI,SW-620 colon,> 100 µM
same,TGI,IGROV1 ovarian,> 100 µM
same,TGI,HL-60(TB) leukemia,> 100 µM
same,TGI,SN12C renal,> 100 µM
same,TGI,KM20L2 colon,> 100 µM
same,TGI,LOX IMVI melanoma,> 100 µM
same,TGI,SNB-75 CNS,> 100 µM
same,TGI,UACC-257 melanoma,> 100 µM
same,TGI,U251 CNS,> 100 µM
same,TGI,RXF-631 renal,> 100 µM
same,TGI,HCT-15 colon,> 100 µM
same,TGI,SF-295 CNS,> 100 µM
same,TGI,SK-OV-3 ovarian,> 100 µM
same,TGI,COLO 205 colon,> 100 µM
same,TGI,HOP-92 NSCLC,> 100 µM
same,TGI,UACC-62 melanoma,> 100 µM
same,TGI,NCI-H23 lung,> 100 µM
same,TGI,DMS 114 small cell lung,> 100 µM
same,TGI,CCRF-CEM leukemia,> 100 µM
same,TGI,MOLT-4 leukemia,> 100 µM
same,TGI,ACHN renal,> 100 µM
same,TGI,HCT-116 colon,> 100 µM
same,TGI,SR leukemia,> 100 µM
same,TGI,EKVX NSCLC,> 100 µM
same,TGI,SF-268 CNS,> 100 µM
same,TGI,MALME-3M melanoma,> 100 µM
same,TGI,HT29 colon,> 100 µM
same,TGI,KM12 colon,> 100 µM
same,TGI,DMS 273 small cell lung,> 100 µM
same,TGI,TK-10 renal,> 100 µM
same,TGI,OVCAR-5 ovarian,> 100 µM
same,TGI,M14 melanoma,> 100 µM
same,TGI,A549 NSCLC,> 100 µM
same,TGI,OVCAR-8 ovarian,> 100 µM
